Measurements as given in patent US20200016231A1, “BIOFILM DISRUPTING COMPOSITION” (Whiteley Corporation Pty Ltd, priority 2016, published 2020).
Like-named read-outs stand apart in the source and are kept apart here.

Assays:
[1] = tested on: Multidrug resistant Acinetobacter Baumannii, (MRAB); assay: microbe, parasite or virus in culture
[2] = tested on: Escherichia coli; assay: Biofilm viability, resazurin assay, Escherichia coli clinical isolates; format: cell-based; settings: read-out: % bacterial viability; for viability at 10000 µM: GSH 10 mM; for viability at 15000 µM: GSH 15 mM; for viability at 30000 µM: GSH 30 mM
Experimental: (§1) Bacterial isolates were grown in Tryptone Soya Broth (TSB) medium for 24 hours at 37° C., in a shaking incubator set at 150 rpm. After this time the organisms were harvested by centrifugation (5000×g, 5 min at 10° C.). After centrifugation, the supernatant liquid was removed and the bacterial pellet was suspended in 1×Phosphate Buffered Saline (PBS). To initiate biofilm growth, the bacterial suspension from PBS was immediately re-suspended in TSB and 250 μL of bacterial cell suspension (OD600=0.5±0.05) were added into the wells of 96-well plates (Corning Corp. USA) and incubated at 37° C. for 48 h at 150 r.p.m.
(§2) After 24 h, treated biofilms supernatant were replaced with 200 μL of 1×PBS, followed by addition of 15 μL of a 0.05% w/v solution of resazurin (Sigma-Aldrich), and incubated further at 37° C., 150 r.p.m.
(§3) After a further 24 h, the fluorescent intensity of the biofilm was determined at Ex544 nm and Em590 nm (Tecan infinite M1000 pro microplate reader). Results are plotted as percentage (%) of bacterial vaiability calculated based on fluorescent intensity. Control or untreated bacterial biofilm fluorescent intensity always considered as 100% bacterial viability and % viability under rest of treatment conditions were calculated with reference to control.
(§4) It should be noted that the Resazurin assay works by recording fluorescence intensity and depends upon two factors (total number of bacteria and total number of viable bacteria in a given biofilm sample).
The treatments shown in column 1 of Table 9 were tested against three clinical isolates of Enterobacter species.

[3] = tested on: Streptococcus pyogenes; assay: Biofilm viability, resazurin assay, Streptococcus pyogenes clinical isolates; format: cell-based; settings: read-out: % bacterial viability; for viability at 10000 µM: GSH 10 mM; for viability at 15000 µM: GSH 15 mM; for viability at 30000 µM: GSH 30 mM
Experimental: as §1, §2, §3, §4
The treatments shown in column 1 of Table 10 were tested against three clinical isolates of Enterobacter species. The treatments used are given in column 1, and the % bacterial viability for each strain tested are given in the subsequent columns (see also FIG. 9).

[4] = tested on: Staphylococcus agalactiae; assay: organism not typed; format: cell-based, Streptococcus agalactiae; settings: for viability at 10000 µM: GSH 10 mM; for viability at 15000 µM: GSH 15 mM; for viability at 30000 µM: GSH 30 mM
Experimental: The treatments shown in column 1 of Table 5 were tested against four strains of […] agalactiae, (veterinary strains ex Cow mastitis). […] The treatments shown in column 1 of Table 13 were tested against four strains of […] agalactiae, (veterinary strains ex Cow mastitis).

[5] = tested on: methicillin-sensitive Staphylococcus aureus; assay: microbe, parasite or virus in culture; format: cell-based; settings: MSSA
Experimental: The treatments shown in column 1 of Table 4 were tested against three strains of methicillin-sensitive Staphylococcus aureus. […] The treatments shown in column 1 of Table 12 were tested against three strains of methicillin-sensitive Staphylococcus aureus.

[6] = tested on: methicillin-resistant Staphylococcus aureus; assay: microbe, parasite or virus in culture; settings: MRSA
[7] = tested on: Pseudomonas aeruginosa; assay: Biofilm viability, resazurin assay, Pseudomonas aeruginosa clinical isolates; format: cell-based; settings: read-out: % bacterial viability; for viability at 10000 µM: GSH 10 mM; for viability at 15000 µM: GSH 15 mM; for viability at 30000 µM: GSH 30 mM
[8] = tested on: Klebsiella pneumoniae; assay: Biofilm viability, resazurin assay, Klebsiella pneumoniae clinical isolates; format: cell-based; settings: read-out: % bacterial viability; for viability at 10000 µM: GSH 10 mM; for viability at 15000 µM: GSH 15 mM; for viability at 30000 µM: GSH 30 mM
Experimental: as §1, §2, §3, §4
The treatments shown in column 1 of table 7 were tested against three clinical isolates of Klebsiella pneumoniae.

[9] = tested on: biofilms; settings: GSH at 30 milli Molar; also non-Pseudomonad organisms (FIGS. 1-13)
Experimental: as §1, with “r.p.m. […]” for “r.p.m.”
as §3, §4

[10] = read-out: % bacterial viability, S. agalactiae # 30
[11] = read-out: % bacterial viability, S. agalactiae # 44
[12] = read-out: % bacterial viability, S. agalactiae # 70
[13] = read-out: % bacterial viability, S. agalactiae # 88
[14] = read-out: % bacterial viability, S. agalactiae # 106

## N[C@@H](CCC(=O)N[C@@H](CS)C(=O)NCC(=O)O)C(=O)O [GSH, glutathione]
[1]; read-out: % bacterial viability, MRAB 1 014754 Urine, GSH 10 mM
  viability at 10000 µM: 73.6%
[1]; read-out: % bacterial viability, MRAB 1 014754 Urine, GSH 15 mM
  viability at 15000 µM: 55.6%
[1]; read-out: % bacterial viability, MRAB 1 014754 Urine, GSH 30 mM
  viability at 30000 µM: 20.4%
[1]; read-out: % bacterial viability, MRAB 2 014801 Catheter, GSH 10 mM
  viability at 10000 µM: 70.8%
[1]; read-out: % bacterial viability, MRAB 2 014801 Catheter, GSH 15 mM
  viability at 15000 µM: 41.2%
[1]; read-out: % bacterial viability, MRAB 2 014801 Catheter, GSH 30 mM
  viability at 30000 µM: 2.45%
[1]; read-out: % bacterial viability, MRAB 3 015069 Skin, GSH 10 mM
  viability at 10000 µM: 84.6%
[1]; read-out: % bacterial viability, MRAB 3 015069 Skin, GSH 15 mM
  viability at 15000 µM: 63.2%
[1]; read-out: % bacterial viability, MRAB 3 015069 Skin, GSH 30 mM
  viability at 30000 µM: 37.7%
[1]; read-out: % bacterial viability, MRAB 4 015095 Hospital Environ, GSH 10 mM
  viability at 10000 µM: 68%
[1]; read-out: % bacterial viability, MRAB 4 015095 Hospital Environ, GSH 15 mM
  viability at 15000 µM: 57.7%
[1]; read-out: % bacterial viability, MRAB 4 015095 Hospital Environ, GSH 30 mM
  viability at 30000 µM: 13.8%
[1]; read-out: % bacterial viability, MRAB 5 015103 Hospital Environ, GSH 10 mM
  viability at 10000 µM: 65.1%
[1]; read-out: % bacterial viability, MRAB 5 015103 Hospital Environ, GSH 15 mM
  viability at 15000 µM: 51.5%
[1]; read-out: % bacterial viability, MRAB 5 015103 Hospital Environ, GSH 30 mM
  viability at 30000 µM: 16.7%
[1]; read-out: % bacterial viability, MRAB 12 016419 Catheter, GSH 10 mM
  viability at 10000 µM: 80.8%
[1]; read-out: % bacterial viability, MRAB 12 016419 Catheter, GSH 15 mM
  viability at 15000 µM: 49%
[1]; read-out: % bacterial viability, MRAB 12 016419 Catheter, GSH 30 mM
  viability at 30000 µM: 18.4%
[2]; 362805 Exit
  viability at 10000 µM: 75.7%
  viability at 15000 µM: 71.8%
  viability at 30000 µM: 0.7%
[2]; 365714 Wound
  viability at 10000 µM: 108%
  viability at 15000 µM: 93.4%
  viability at 30000 µM: 12.3%
[2]; 366290 Drain fluid
  viability at 10000 µM: 69.8%
  viability at 15000 µM: 68.7%
  viability at 30000 µM: 3.9%
[3]; 361194 Left leg boil
  viability at 10000 µM: 55.6%
  viability at 15000 µM: 35.8%
  viability at 30000 µM: 4.3%
[3]; 371982 Skin Wound
  viability at 10000 µM: 99.8%
  viability at 15000 µM: 90.2%
  viability at 30000 µM: 15.4%
[3]; 386596 Head Wound
  viability at 10000 µM: 67.7%
  viability at 15000 µM: 42.7%
  viability at 30000 µM: 22.3%
[4]; [10]
  viability at 10000 µM: 104%
  viability at 15000 µM: 80.7%
  viability at 30000 µM: 35.3%
[4]; [11]
  viability at 10000 µM: 87%
  viability at 15000 µM: 73.9%
  viability at 30000 µM: 29.2%
[4]; [12]
  viability at 10000 µM: 89.2%
  viability at 15000 µM: 79.4%
  viability at 30000 µM: 38.3%
[4]; [13]
  viability at 10000 µM: 88%
  viability at 15000 µM: 81.6%
  viability at 30000 µM: 25%
[4]; [14]
  viability at 10000 µM: 103%
  viability at 15000 µM: 83.2%
  viability at 30000 µM: 29.2%
[5]; read-out: % bacterial viability, MSSA - 0800 DFU, GSH 10 mM
  viability at 10000 µM: 82.4%
[5]; read-out: % bacterial viability, MSSA - 0800 DFU, GSH 15 mM
  viability at 15000 µM: 61.7%
[5]; read-out: % bacterial viability, MSSA - 0800 DFU, GSH 30 mM
  viability at 30000 µM: 20.1%
[5]; read-out: % bacterial viability, MSSA - 34397 Left elbow, GSH 10 mM
  viability at 10000 µM: 88.7%
[5]; read-out: % bacterial viability, MSSA - 34397 Left elbow, GSH 15 mM
  viability at 15000 µM: 61.3%
[5]; read-out: % bacterial viability, MSSA - 34397 Left elbow, GSH 30 mM
  viability at 30000 µM: 1.06%
[5]; read-out: % bacterial viability, MSSA - 34654 Right toe, GSH 10 mM
  viability at 10000 µM: 86.1%
[5]; read-out: % bacterial viability, MSSA - 34654 Right toe, GSH 15 mM
  viability at 15000 µM: 70.5%
[5]; read-out: % bacterial viability, MSSA - 34654 Right toe, GSH 30 mM
  viability at 30000 µM: 15.3%
[6]; read-out: % bacterial viability, MRSA 27060 Left leg, GSH 10 mM
  viability at 10000 µM: 88.8%
[6]; read-out: % bacterial viability, MRSA 27060 Left leg, GSH 15 mM
  viability at 15000 µM: 65.2%
[6]; read-out: % bacterial viability, MRSA 27060 Left leg, GSH 30 mM
  viability at 30000 µM: 1.02%
[6]; read-out: % bacterial viability, MRSA 30616 Chin vesicle, GSH 10 mM
  viability at 10000 µM: 73.1%
[6]; read-out: % bacterial viability, MRSA 30616 Chin vesicle, GSH 15 mM
  viability at 15000 µM: 58.8%
[6]; read-out: % bacterial viability, MRSA 30616 Chin vesicle, GSH 30 mM
  viability at 30000 µM: 4.54%
[6]; read-out: % bacterial viability, MRSA - 0799 DFU, GSH 10 mM
  viability at 10000 µM: 86.7%
[6]; read-out: % bacterial viability, MRSA - 0799 DFU, GSH 15 mM
  viability at 15000 µM: 75%
[6]; read-out: % bacterial viability, MRSA - 0799 DFU, GSH 30 mM
  viability at 30000 µM: 33.1%
[7]; 364077 Scalp wound
  viability at 10000 µM: 95.6%
  viability at 15000 µM: 93%
  viability at 30000 µM: 30.3%
[7]; 365707 Left ankle wound
  viability at 10000 µM: 104%
  viability at 15000 µM: 101%
  viability at 30000 µM: 11.2%
[7]; PA0053 DFU
  viability at 10000 µM: 89.8%
  viability at 15000 µM: 74.5%
  viability at 30000 µM: 7.3%
[8]; 374450 Catheter urine
  viability at 10000 µM: 86%
  viability at 15000 µM: 72.8%
  viability at 30000 µM: 16.8%
[8]; 377951 Left hip wound
  viability at 10000 µM: 81.6%
  viability at 15000 µM: 70.8%
  viability at 30000 µM: 9.13%
[8]; 385261 Neck wound
  viability at 10000 µM: 78.8%
  viability at 15000 µM: 62.5%
  viability at 30000 µM: 14.1%
[9]
  killing/disrupting biofilms compared with antibiotics: significantly higher effect than antibiotics
